Assay: gradient 5% acetonitrile 3 min, to 50% in 2 min, to 85% in 15 min, held 3 min, 100 µL/min
Conditions: column: Zorbax Extend-C18 2.1 x 50 mm; eluents: water / acetonitrile, 0.1% formic acid
Summary of the method: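 Retention times come from adduct peaks that were picked computationally and then checked by hand. The standards, pure and pooled in mixtures of ~100 molecules, were run on a Zorbax Extend-C18 column (2.1 × 50 mm, 1.8 μm) at 100 μL/min with water and acetonitrile, each with 0.1% formic acid. Detection was by quadrupole time-of-flight mass spectrometry in positive and negative ionization mode, with a dead volume of 40 μL and a dwell volume of 900 μL.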

| RP-LC retention time | Compound |
| --- | --- |
| 650 s | CCc1nc2ccccc2c(C(=O)NC2CCCCC2)c1C |
| 583 s | CCN1CCCC1CN(CC(=O)N1CCNCC1)S(=O)(=O)c1ccc(Br)cc1 (centres undefined) |
| 786 s | COc1ccc(Cl)cc1NC(=O)C1CCCN(c2cc(=O)n(C)c(=O)n2C)C1 (centres undefined) |
| 766 s | Cc1noc(/C=C\c2ccc(S(=O)(=O)NC3CC3)cc2)c1NC(=O)C1CC1 |
| 913 s | O=C(NCCOc1cccc(C(F)(F)F)c1)c1ccc([N+](=O)[O-])cc1 |
| 805 s | Cc1cccc(Cn2c(CN3CCC(C(=O)NCc4cccs4)CC3)cc3ccccc32)c1 |
| 769 s | NS(=O)(=O)c1ccc(NC(=O)c2csc3c2CCCC3)cc1 |
| 694 s | CN(C)C(=O)Cn1c(C(F)(F)F)nc2cc3c(cc21)OCCO3 |
| 921 s | Cc1cc(C)cc(Nc2c(-c3ccc(N(C)C)cc3)nc3cnccn23)c1 |
| 874 s | CC(=O)Nc1ccc(Cc2nc(-c3cccc(-c4ccnn4C)c3)no2)cc1 |
| 605 s | CCCN1CCN(C(=O)c2cn(-c3cc(N4CCSCC4)ncn3)cn2)CC1 |
| 707 s | CS(=O)(=O)N1CCCC(C(=O)Nc2nc3cc4c(cc3s2)OCCO4)C1 (centres undefined) |
| 618 s | CNC(=O)[C@@H]1CN(C(=O)Cn2nc(C(F)(F)F)cc2C)C[C@H]1c1n[nH]c(C)n1 |
| 716 s | COc1ccc(C(=O)N2C[C@@H]3C[C@H]2C[C@@H]3NS(=O)(=O)c2ccccc2)cn1 |
| 733 s | CCn1ccc2sc(C)c(C(=O)NC3CCCC3)c2c1=O |
| 825 s | CCn1cc(-c2ccc(OC)cc2)cc1C(=O)O |
| 1060 s | COc1ccc(-c2noc(Cc3nnc(-c4ccc(Cl)cc4)o3)n2)cc1F |
| 733 s | CCn1c(CCNC(=O)c2ccc(OC)cc2C)nc2cccnc21 |
| 704 s | CN(Cc1nc(Cn2ccn3nc(-c4ccc(F)cc4)cc3c2=O)no1)C1CCCCC1 |
| 633 s | Cc1noc(C)c1Cc1ccc(C(=O)N2CCc3nn(C)c(=O)n3CC2)o1 |
| 731 s | CCc1noc(-c2cnc3nc(C)ccc3c2Nc2ccc3c(c2)OCCO3)n1 |
| 616 s | O=C(c1cccnc1)N1CCN(c2cc(-c3cccs3)[nH]n2)CC1 |

| RP-LC retention time | Compound |
| --- | --- |
| 1170 s | O=C(NOCC1CC1)c1cc(Br)c(F)c(F)c1Nc1ccc(I)cc1Cl |
| 956 s | Cc1ccc(N2CCC(NC(=O)Nc3cc(Cl)ccc3C)C2=O)cc1 (centres undefined) |
| 604 s | O=c1[nH]cc(S(=O)(=O)N2CCCCC2)c(=O)[nH]1 |
| 1010 s | COc1ccc2oc(-c3csc(NC(=O)c4c(F)cccc4F)n3)cc2c1 |
| 1010 s | COc1ccc(C2Cn3nnc(-c4nc(-c5ccccc5OC)no4)c3CO2)cc1 (centres undefined) |
| 788 s | O=C(NCc1ccco1)C1(c2ccc(F)cc2)CC1 |
| 577 s | CCOc1ccccc1NC(=O)N1CCc2nc[nH]c2C1 |
| 605 s | COc1ccc(N2C(=O)CCC(C(=O)NCCCN3CCC(C)CC3)C2c2ccc(F)cc2)cc1 (centres undefined) |
| 1240 s | CCc1ccc(NS(=O)(=O)c2c(C)nc3sc4cc(C)ccc4n3c2=O)cc1 |
| 744 s | Cc1cc(-c2csc(S(=O)(=O)NCCc3ccc(S(N)(=O)=O)cc3)c2)on1 |
| 651 s | CCNc1cc(N2CCC(CCC(=O)NCc3ccccc3C)CC2)ncn1 |
| 747 s | CC1(C)C(=O)Nc2ccc(S(=O)(=O)N3CCC(c4noc(C5CC5)n4)C3)cc21 (centres undefined) |
| 1040 s | C=C[C@@]1(C)CC(=O)[C@]2(O)[C@@]3(C)[C@H](O)CCC(C)(C)[C@@H]3[C@H](O)[C@H](OC(C)=O)[C@@]2(C)O1 |
| 861 s | COc1cccc(N2CCN(c3ccnc(SCC(=O)Nc4c(C)cc(C)cc4C)n3)CC2)c1 |
| 717 s | COc1ccc(-n2ncc(C(=O)N3CCN(C(=O)c4ccco4)CC3)c2-n2cccc2)cc1 |
| 1070 s | CCn1c(C(=O)N2CCN(c3cccc(C)c3C)CC2)cc2sccc21 |
| 598 s | COc1ccc(S(=O)(=O)N2CCCC2)cc1C(=O)Nc1cccc2cnccc12 |
| 689 s | CCC(Sc1nncn1C)C(=O)Nc1nnc(-c2cccc([N+](=O)[O-])c2)s1 (centres undefined) |
| 971 s | O=C(c1ccc(-c2csc(C3CC3)n2)cc1)N1CCCCC1 |
| 608 s | O=C(Nc1ccc2cn[nH]c2c1)C1CC1 |
| 1240 s | CCc1ccc(NC(=O)Cc2c(C)nn(-c3nc(-c4ccc(F)cc4)cs3)c2C)cc1 |
| 686 s | COCCC(=O)N1CCN(c2nc(CN3CCOCC3)cs2)CC1 |

| RP-LC retention time | Compound |
| --- | --- |
| 799 s | CC(C)S(=O)(=O)c1cc2c(cc1NC(=O)c1ccccc1F)n(C)c(=O)n2C |
| 702 s | CC1=C(c2ccccc2)S(=O)(=O)N=C1N1CCCN(C(=O)C2CCCO2)CC1 (centres undefined) |
| 630 s | O=C(NC1CC1)[C@@H]1C[C@H](Oc2cccnc2)CN1C(=O)c1ccsc1 |
| 774 s | CCn1ncc(CN(C)C(=O)C2CN(C(=O)c3ccccc3)CC23CCCCC3)c1C (centres undefined) |
| 785 s | COCc1nc(C2CCN(S(=O)(=O)c3ccc(C#N)cc3)C2)no1 (centres undefined) |
| 936 s | CC(C)n1cc(S(=O)(=O)Nc2cc(F)cc(F)c2)c2cccnc21 |
| 688 s | CCNC(=O)c1nc(Nc2ccc(F)cc2)c2ccccc2n1 |
| 736 s | O=C(Nc1ccc2c(c1)OCO2)C1CCN(C(=O)C2Sc3ccccc3NC2=O)CC1 (centres undefined) |
| 851 s | COCCc1noc(C2Cc3ccccc3N2C(=O)Nc2ccc(OC)c(OC)c2)n1 (centres undefined) |
| 583 s | COc1ccc(C)cc1NC(=O)Cn1nc(C(=O)N2CCN(C)CC2)cc1C |
| 571 s | COc1ccc(C(=O)N2CCN(c3cc(C)n4cnnc4n3)CC2)cn1 |
| 756 s | Cc1cccc(N2CCN(C(=O)C3CCN(c4cncnc4N(C)C)CC3)CC2)c1C |
| 905 s | O=C(NC1(c2nc(C3CC3)no2)CCCCC1)c1cc(-c2ccc(F)cc2)n[nH]1 |
| 855 s | C/C(=N\NC(N)=O)c1ccc(Cl)c(-n2cccc2)c1 |
| 694 s | CCn1ccc(NC(=O)c2ccccc2)n1 |
| 809 s | CCOc1ccc(CC(=O)N2CCN(c3cc(-c4cccs4)[nH]n3)CC2)cc1 |
| 638 s | O=C(Cn1nc2n(c1=O)CCCC2)Nc1ccc2c(c1)OCO2 |
| 770 s | Cc1ccc(CNC(=O)c2ncn3c2C(=O)N(C2CC2)C(C)(C(=O)NC2CCCC2)C3)cc1 (centres undefined) |
| 845 s | Cc1ccc(C)c(NC(=O)C2CCCN2S(=O)(=O)c2cc3c(cc2C)NC(=O)C(C)O3)c1 (centres undefined) |
| 775 s | O=C1[C@H]2CCCC[C@H]2C(=O)N1CCCCN1CCN(c2nsc3ccccc23)CC1 |
| 869 s | Cc1ccc(NC(=O)Cn2nc(N(C)C)c3ccccc3c2=O)c(C)c1 |
| 948 s | Cc1nc2ccccc2c(=O)n1Cc1noc(-c2cccc(Br)c2)n1 |

| RP-LC retention time | Compound |
| --- | --- |
| 617 s | CCCCN(C)Cc1nnn(-c2ccc(F)cc2)c1C |
| 944 s | CCc1ccc(C(=O)N2CCCC(COc3ccc(C(=O)NC(C)C)cc3)C2)cc1 (centres undefined) |
| 847 s | CCOC(=O)CNC(=O)NCC(c1ccccc1)c1c[nH]c2ccccc12 (centres undefined) |
| 983 s | Cc1noc(-c2ccc(NC(=O)C3c4ccccc4Oc4ccccc43)cc2)n1 |
| 616 s | CN1CCN(CCNc2ccc(CO)c3sc4ccccc4c(=O)c23)CC1 |
| 836 s | O=C(c1cn2nc(Cl)ccc2n1)N1CCN(c2ccccc2F)CC1 |
| 927 s | CC(/C=C/c1cccc(Oc2ccc(F)cc2)c1)N(O)C(N)=O (centres undefined) |
| 600 s | CCC1CN2C=NC(N3CCN(C(=O)Nc4ccc(OC)cc4)CC3)=CC2=N1 (centres undefined) |
| 713 s | CSc1cccc(NC(=O)CCc2c(-c3ccc(F)cc3)nc3ccccn23)c1 |
| 1180 s | COc1ccc(OC(=O)c2cn(CC(C)C)c(=O)c3ccccc23)cc1 |
| 629 s | C[C@@H](O)[C@H](NC(=O)c1ccc(C#Cc2ccc(CN3CCOCC3)cc2)cc1)C(=O)NO |
| 1060 s | COc1cc(-c2noc(Cn3ncn4nc(-c5ccccc5Cl)cc4c3=O)n2)cc(OC)c1OC |
| 979 s | O=C(Cc1ccccc1F)N1CCCn2nc(-c3ccc(Cl)cc3)cc2C1 |
| 645 s | O=C(C1CCN(S(=O)(=O)N2CCOCC2)CC1)N1CCN(Cc2noc3ccccc23)CC1 |
| 1070 s | C=CCN1C(=O)COc2ccc(-c3csc(NC(=O)c4cccc(Cl)c4)n3)cc21 |
| 718 s | CN(C)C(=O)c1csc(S(=O)(=O)N2CCC(C(=O)NCc3cccs3)CC2)c1 |
| 653 s | CSc1ccc(CNC(=O)C2CCCN(c3ccc(N4CCOCC4)nn3)C2)cc1 (centres undefined) |
| 778 s | Cc1c(C(=O)NCCOc2ccc3c(c2)OCO3)cccc1[N+](=O)[O-] |
| 990 s | COc1ccc(OC)c(NC(=O)C(=O)c2c(C)n(C)c3ccccc23)c1 |
| 853 s | CCCCS(=O)(=O)c1cc2c(cc1NC(=O)c1ccccc1C)n(C)c(=O)n2C |
| 816 s | CCCc1noc(-c2ccc(-n3cnc(C(=O)N4CCCC4)c3)nc2)n1 |
| 981 s | CC(NC(=O)c1cn(-c2cc(-c3nc(C4CC4)no3)ccn2)cn1)c1ccccc1 (centres undefined) |

| Compound | RP-LC retention time |
| --- | --- |
| Cn1cc(C(=O)NCc2ccc3c(c2)OCO3)c2cccnc21 | 706 s |
